Legend:
[1] = tested on: B16F10 mouse melanoma tumors; experiment: Immune cells in tumor microenvironment by flow cytometry, subcutaneous B16F10 melanoma; format: in vivo, mice
[2] = tested on: STAT5 phosphorylation in lymphocytes; experiment: STAT5 phosphorylation in lymphocytes by flow cytometry after administration in mice; format: in vivo
Excerpt: Conventional approaches, such as those involving radiolabeling a compound, administering it in vivo, and determining its clearance, may be used to determine whether a compound proposed to be a long-acting IL-2Rβ biased agonist is “long-acting”. For the purposes herein, the long-acting nature of an IL-2Rβ biased agonist is typically determined using flow cytometry to measure STAT5 phosphorylation in lymphocytes at various time points after administration of the agonist to be evaluated in mice.

aldesleukin: clinically available IL-2 (aldesleukin), unmodified recombinant IL-2
activated natural killer (NK) cells ([1]; 5 and 7 days after treatment initiation): increased | ratio of CD8/Treg in the tumor ([1]; by day 7, single dose RSLAIL-2 or 5 doses aldesleukin): 18 | total and memory CD8 cells as percentage of tumor-infiltrating lymphocytes ([1]; relative to vehicle): increased as a percentage of tumor-infiltrating lymphocytes; however, these effects were transient | percentage of Tregs (FoxP3+ subset of CD4 cells) in tumor ([1]; single dose RSLAIL-2 or 5 doses aldesleukin): modest achieving significance on day 5 | time by which STAT5 phosphorylation signal is lost [2]: around 24 hours

Reference: US12054553B2, “Immunotherapeutic tumor treatment method” (Nektar Therapeutics, priority 2017, dated 2024)
